Among the data in patent publication EP4813381A1, “PHARMACEUTICAL USE OF GUAIANE SESQUITERPENE DERIVATIVE” (Nanjing University Of Chinese Medicine, priority 2023, dated 2025) are Release rate values, retold here.

Series [1] is described as follows: Conversion rate of salt-form prodrugs to parent compound in HEPES buffer solution. The format is physicochemical. The settings on record: conversion to Compound 1, HEPES buffer pH 7.4, 37 °C. Here is the method:
Adjust the pH to 7.4 using 0.5 M NaOH, then dilute to a final volume 100 mL with distilled water.
(§1) Sample Analysis: Dissolve 0.6 mg of the compound in 250 µl of deionized water separately. Add 250 µl of mouse serum or HEPES 7.4 solution to the sample, incubate at a constant temperature of 37 °C, and collect samples at different time points. Pipette 20 µl of the sample to an EP tube, add 60 µl of methanol, vortex to mix thoroughly, and centrifuge at 12,000 rpm at 4 °C for 10 min. At 1 h, 2 h, 4 h, 8 h, and 12 h respectively, collect the supernatant for HPLC analysis. Inject 10 µL of sample and record the corresponding peak areas.

A short description of series [2]: Conversion rate of salt-form prodrugs to parent compound in mouse plasma. The settings on record: conversion to Compound 1, mouse plasma, 37 °C. The format is in vitro ADME. As to the method:
Pharmaceutically acceptable salts of guaiane-type sesquiterpene lactone derivatives were selected and evaluated for their conversion rates to Compound 1 and Compound 83 in plasma and HEPES buffer, with results shown in Tables 2-1, 2-2, 3-1, and 3-2.
Plasma Preparation: Collect mouse plasma into an EP tube pre-loaded with sodium heparin, centrifuge at 8000 rpm for 10 minutes at 4°C, and then collect the supernatant.
as §1, with “areas. Chromatographic conditions: Hanbang C18 column (4.6 × 250 mm, 5 µm); mobile phase: acetonitrile: […] ammonium formate solution = 60:40; flow rate 1.0 mL/min; detection wavelength 210 nm; column temperature 30 °C. [drawing 171] Table 2-1. Conversion Rate of Compounds 20-42 to Compound 1 at Different Time Points in HEPES Buffer Solution” for “areas.”

With `C[C@@]12CC[C@@H]3[C@H](OC(=O)[C@H]3CN3CCNCC3)[C@@H]3[C@]1(CC[C@@]3(C)O)C2` [compound 26], the Release rate in series [1] (1 h) is 6.8%; in series [1] (2 h), 16.1%; in series [1] (4 h), 27.3%; in series [1] (8 h), 43.5%; in series [1] (12 h), 55.6%.
As for `C[C@@]12CC[C@@H]3[C@H](OC(=O)[C@H]3CN3CCC3)[C@@H]3[C@]1(CC[C@@]3(C)O)C2` [compound 33], the Release rate in series [2] (1 h) is reported as 6.9%; in series [2] (2 h) it was 14.8%; in series [2] (4 h), 26.0%; in series [2] (8 h) it was 42.8%; in series [2] (12 h) it was 50.7%; in series [1] (1 h) it was 6.9%. The Release rate stood at 15.8% in series [1] (2 h), 26.0% in series [1] (4 h), 41.8% in series [1] (8 h) and 51.1% in series [1] (12 h).
For the molecule `C[C@@]12CC[C@@H]3[C@H](OC(=O)[C@H]3CN3CCC(N4CCOCC4)CC3)[C@@H]3[C@]1(CC[C@@]3(C)O)C2` [compound 36], the Release rate in series [2] (1 h) is on record as 6.6%; in series [2] (2 h), 14.8%; in series [2] (4 h) it was 26.0%; in series [2] (8 h), 43.6%; in series [2] (12 h), 52.1%; in series [1] (1 h), 6.9%. For the same molecule, the Release rate is reported as 14.8% in series [1] (2 h), 26.0% in series [1] (4 h), 43.6% in series [1] (8 h) and 52.4% in series [1] (12 h).
Regarding `C[C@@]12CC[C@@H]3[C@H](OC(=O)[C@H]3CN3CCC4(CCCC4)CC3)[C@@H]3[C@]1(CC[C@@]3(C)O)C2` [compound 34], the Release rate was 7.8% in series [2] (1 h); 17.2% in series [2] (2 h); 28.6% in series [2] (4 h); 47.6% in series [2] (8 h); 58.8% in series [2] (12 h); 7.0% in series [1] (1 h). The Release rate in series [1] (2 h) was determined as 16.2%; in series [1] (4 h), 27.6%; in series [1] (8 h), 43.6%; in series [1] (12 h) it was 54.4%.
As for `CN(C)C[C@@H]1C(=O)O[C@H]2[C@H]1CC[C@@]1(C)C[C@]13CC[C@@](C)(O)[C@H]23` [compound 39], the Release rate in series [2] (1 h) is 6.6%; in series [2] (2 h), 14.0%; in series [2] (8 h), 43.6%; in series [2] (12 h), 52.8%; in series [1] (1 h) it was 6.6%; in series [1] (2 h) it was 15.0%. Further, the Release rate came out at 42.7% in series [1] (8 h) and 54.3% in series [1] (12 h).
On to `CN(C)C[C@@H]1C(=O)O[C@H]2[C@H]1CC[C@@]1(C)C[C@]13CC[C@@](C)(O)[C@H]23` [compound 40], for which the Release rate in series [2] (1 h) is 6.7%; in series [2] (2 h), 14.2%; in series [2] (8 h) it was 44.0%; in series [2] (12 h), 52.6%; in series [1] (1 h), 6.8%; in series [1] (2 h), 14.6%. Further, the values for the Release rate in series [1] (8 h) and in series [1] (12 h) were 44.0% and 50.2%, respectively.
For `CN(C)C[C@@H]1C(=O)O[C@H]2[C@H]1CC[C@@]1(C)C[C@]13CC[C@@](C)(O)[C@H]23` [compound 42], the Release rate was 6.3% in series [2] (1 h); 14.2% in series [2] (2 h); 41.0% in series [2] (8 h); 47.2% in series [2] (12 h); 7.0% in series [1] (1 h); 15.0% in series [1] (2 h). For the same molecule, the Release rate in series [1] (4 h) is listed as 25.2%; in series [1] (8 h), 42.8%; in series [1] (12 h), 52.3%.
For `CN(C)C[C@@H]1C(=O)O[C@H]2[C@H]1CC[C@@]1(C)C[C@]13CC[C@@](C)(O)[C@H]23` [compound 41], the Release rate worked out at 7.8% in series [2] (1 h); 17.2% in series [2] (2 h); 28.0% in series [2] (4 h); 46.1% in series [2] (8 h); 54.8% in series [2] (12 h); 7.0% in series [1] (1 h). For the same molecule, the Release rate is 16.2% in series [1] (2 h), 27.3% in series [1] (4 h), 43.4% in series [1] (8 h) and 53.2% in series [1] (12 h).
With `CCCN(CCC)C[C@@H]1C(=O)O[C@H]2[C@H]1CC[C@@]1(C)C[C@]13CC[C@@](C)(O)[C@H]23` [compound 29], the Release rate in series [2] (1 h) was 6.8%; in series [2] (2 h) it was 14.2%; in series [2] (4 h), 24.6%; in series [2] (8 h), 40.2%; in series [2] (12 h) it was 49.0%; in series [1] (1 h), 6.8%. Also, the Release rate in series [1] (2 h) is on record as 14.2%; in series [1] (4 h), 24.6%; in series [1] (8 h), 40.2%; in series [1] (12 h), 49.8%.
As for `CCN(CC)C[C@@H]1C(=O)O[C@H]2[C@H]1CC[C@@]1(C)C[C@]13CC[C@@](C)(O)[C@H]23` [compound 28], the Release rate came out at 6.8% in series [2] (1 h); 14.5% in series [2] (2 h); 24.4% in series [2] (4 h); 40.4% in series [2] (8 h); 49.1% in series [2] (12 h); 6.8% in series [1] (1 h). Further, the Release rate in series [1] (2 h) stood at 14.5%; in series [1] (4 h), 24.4%; in series [1] (8 h), 40.4%; in series [1] (12 h), 50.0%.
For `C[C@@]12CC[C@@H]3[C@H](OC(=O)[C@H]3CN3CCC4(CC3)CC4)[C@@H]3[C@]1(CC[C@@]3(C)O)C2` [compound 37], the Release rate stood at 8.2% in series [2] (1 h); 17.8% in series [2] (2 h); 29.3% in series [2] (4 h); 48.1% in series [2] (8 h); 67.8% in series [2] (12 h); 7.2% in series [1] (1 h). Also, the Release rate was 16.8% in series [1] (2 h), 28.3% in series [1] (4 h), 44.1% in series [1] (8 h) and 65.8% in series [1] (12 h).
Consider `CCOC(=O)[C@@H]1CCCN1C[C@@H]1C(=O)O[C@H]2[C@H]1CC[C@@]1(C)C[C@]13CC[C@@](C)(O)[C@H]23` [compound 23], for which the Release rate in series [2] (1 h) came out at 7.2%; in series [2] (2 h), 14.3%; in series [2] (4 h), 26.8%; in series [2] (8 h), 45.1%; in series [2] (12 h), 52.8%; in series [1] (1 h), 6.2%. Besides, the Release rate in series [1] (2 h) was found to be 14.3%; in series [1] (4 h), 26.8%; in series [1] (8 h), 41.1%; in series [1] (12 h) it was 52.8%.
Consider `CCCCN(CCCC)C[C@@H]1C(=O)O[C@H]2[C@H]1CC[C@@]1(C)C[C@]13CC[C@@](C)(O)[C@H]23` [compound 30], for which the Release rate worked out at 6.6% in series [2] (1 h); 13.6% in series [2] (2 h); 23.8% in series [2] (4 h); 40.8% in series [2] (8 h); 48.8% in series [2] (12 h); 6.6% in series [1] (1 h). For the same molecule, the Release rate in series [1] (2 h) is given as 14.6%; in series [1] (4 h) it was 23.8%; in series [1] (8 h) it was 40.8%; in series [1] (12 h), 49.8%.
Turning to `C[C@@]12CC[C@@H]3[C@H](OC(=O)[C@H]3CN3CCCC3)[C@@H]3[C@]1(CC[C@@]3(C)O)C2` [compound 22], the Release rate came to 6.4% in series [1] (1 h); 14.8% in series [1] (2 h); 26.6% in series [1] (4 h); 41.3% in series [1] (8 h); 53.7% in series [1] (12 h).
Take `CCN1CCN(C[C@@H]2C(=O)O[C@H]3[C@H]2CC[C@@]2(C)C[C@]24CC[C@@](C)(O)[C@H]34)CC1` [compound 27]: the Release rate in series [2] (1 h) was 7.9%; in series [2] (2 h), 17.4%; in series [2] (4 h), 28.4%; in series [2] (8 h), 48.2%; in series [2] (12 h) it was 59.1%.
